From patent US9284325B2, “Spectinamides as anti-tuberculosis agents” (UNIVERSITY OF TENNESSEE RESEARCH FOUNDATION, priority 2009, dated 2016)
Structures can show the parent of a compound that is named as a salt. Where two headings read alike, the source gives them in different places.

Experiments:
[1] = system: Strep. pyogenes ATCC 700294; test: MIC determination by microbroth dilution; type: cell-based, Streptococcus pyogenes; conditions: for MIC: Streptococcus pyogenes, ATCC700294, read-out: MIC S. pyogenes
E. faecalis ATCC 33186 = test: MIC determination by microbroth dilution; type: cell-based, Enterococcus faecalis; conditions: for MIC: Enterococcus faecalis, ATCC33186
M. tuberculosis H37Rv = test: MIC determination by microbroth dilution, anti-tuberculosis activity; type: cell-based, Mycobacterium tuberculosis
[2] = system: Strenotrophomonas maltophilia ATCC 13637; test: MIC determination by microbroth dilution; type: cell-based
P. aeruginosa PAO1 = test: MIC determination by microbroth dilution; type: cell-based, Pseudomonas aeruginosa; conditions: for MIC: Pseudomonas aeruginosa
[3] = system: Burkholderia cepacia ATCC 25416; test: MIC determination by microbroth dilution; type: cell-based; conditions: for MIC: ATCC25416, read-out: MIC B. cepcia
[4] = system: S. aureus 8325 or strain ATCC 29213; test: MIC determination by microbroth dilution; type: cell-based, Staphylococcus aureus; conditions: S. aureus 8325 or strain ATCC 29213 (for 1471-1544); for MIC: Staphylococcus aureus, ATCC29213
[5] = system: Proteus mirabilis ATCC 25933; test: MIC determination by microbroth dilution; type: cell-based; conditions: for MIC: ATCC25933
[6] = system: Proteus vulgaris ATCC 33420; test: MIC determination by microbroth dilution; type: cell-based; conditions: for MIC: ATCC33420
[7] = system: Klebsiella pneumoniae ATCC 33495; test: MIC determination by microbroth dilution; type: cell-based; conditions: for MIC: ATCC33495
[8] = system: Strep. pneumoniae DAW27 or strain R6; test: MIC determination by microbroth dilution; type: cell-based, Streptococcus pneumoniae; conditions: Strep. pneumoniae DAW27 or strain R6 (for 1443-1544); for MIC: Streptococcus pneumoniae, read-out: MIC S. pneumoniae
E. coli K12 ΔtolC = test: microbe, parasite or virus in culture; type: cell-based; conditions: for MIC: Escherichia coli, read-out: MIC E. coli K12 ΔtolC
[9] = system: Acinetobacter baumannii ATCC 19606; test: MIC determination by microbroth dilution; type: cell-based; conditions: for MIC: ATCC19606
B. anthracis Sterne 34F2 = test: microbe, parasite or virus in culture; type: cell-based, Bacillus anthracis; conditions: for MIC: Bacillus anthracis, STERNE34F2, read-out: MIC B. anthracis 34F2
E. coli ribosomes = type: biochemical; conditions: for IC50, 50% inhibition of luciferase biosynthesis in S30 assay: E. coli S30 transcription/translation assay; for relative inhibitory activity on luciferase production: tested at 0.66 and 6.6 μM, FIG. 5
E. coli K12 = test: MIC determination by microbroth dilution; type: cell-based, Escherichia coli; conditions: for MIC: Escherichia coli, K12
[10] = Mycobacterium tuberculosis, H37RV, 168 h, read-out: MIC

| Molecule | MIC [1] [µg/mL] | MIC (E. faecalis ATCC 33186) [µg/mL] | MIC (M. tuberculosis H37Rv; [10]) [µg/mL] | MIC [2] [µg/mL] | MIC (P. aeruginosa PAO1) [µg/mL] | MIC [3] [µg/mL] | MIC [4] [µg/mL] | MIC [5] [µg/mL] | MIC [6] [µg/mL] | MIC [7] [µg/mL] | MIC [8] [µg/mL] | MIC (E. coli K12 ΔtolC) [µg/mL] | MIC [9] [µg/mL] | MIC (B. anthracis Sterne 34F2) [µg/mL] | IC50, 50% inhibition of luciferase biosynthesis in S30 assay (E. coli ribosomes) [µg/mL] | relative inhibitory activity on luciferase production (E. coli ribosomes) | MIC (E. coli K12) [µg/mL] | other results |
| --- | --- | --- | --- | --- | --- | --- | --- | --- | --- | --- | --- | --- | --- | --- | --- | --- | --- | --- |
| CN[C@@H]1[C@H](O)[C@H](NC)C2O[C@]3(O)C(OC2[C@H]1O)O[C@H](C)C[C@H]3NC(=O)c1ccccn1 (stereo partly drawn) [Compound 1370, 3′-Dihydro-3′-deoxy-4(R)-pyridin-2-carboxylicamino spectinomycin Dihydrochloride] | > 200 | > 200 | 100 | > 200 | > 200 | > 200 | > 200 | > 200 | > 200 | > 200 | > 200 | 100 | > 200 | 50 | 0.89 | less active than 1329 | 200 | – |
| CN[C@@H]1[C@H](O)[C@H](NC)C2O[C@]3(O)C(OC2[C@H]1O)O[C@H](C)C[C@H]3NC(=O)Cc1cccc(F)c1F (stereo partly drawn) [Compound 1447, 3′-Dihydro-3′-deoxy-4(R)-(2,3-difluoro-phenyl)acetylamino spectinomycin Dihydrochloride] | 6.25 | 100 | 50 | > 200 | > 200 | > 200 | > 200 | > 200 | > 200 | 200 | 6.25 | > 200 | > 200 | 100 | 0.22 | – | 200 | – |
| CN[C@@H]1[C@H](O)[C@H](NC)C2O[C@]3(O)C(OC2[C@H]1O)O[C@H](C)C[C@H]3NC(=O)Cc1ncccn1 (stereo partly drawn) [Compound 1439, 3′-Dihydro-3′-deoxy-4(R)-(pyrimidin-2yl)acetylamino spectinomycin Dihydrochloride] | > 200 | 50 | > 200 | > 200 | 50 | > 200 | 25 | > 200 | > 200 | > 200 | 12.5 | 12.5 | > 200 | 50 | 2.63 | less active than 1329 | 100 | – |
| 3′-Dihydro-3′-deoxy-4(R)-dodecanoylamino spectinomycin Dihydrochloride [Compound 1366] | – | – | – | – | – | – | – | – | – | – | – | – | – | – | 15.3 | – | – | MIC S. pyogenes [1]: >200 µg/mL; MIC E. faecalis (E. faecalis ATCC 33186): 25 µg/mL; MIC (M. tuberculosis H37Rv): 1.6 µg/mL; MIC S. mal [2]: 25 µg/mL; MIC P. aer. (P. aeruginosa PAO1): 50 µg/mL; MIC B. cepcia [3]: >200 µg/mL; MIC S. aureus [4]: 25 µg/mL; MIC P. mir [5]: >200 µg/mL; MIC P. vul [6]: >200 µg/mL; MIC K. pneu. [7]: >200 µg/mL; MIC S. pneumoniae [8]: 25 µg/mL; MIC E. coli K12 ΔtolC (E. coli K12 ΔtolC; tolC knockout strain, defective multi-drug efflux pump): 12.5 µg/mL; MIC A. bau. [9]: >200 µg/mL; MIC B. anthracis 34F2 (B. anthracis Sterne 34F2): >200 µg/mL; MIC E. coli K12 (E. coli K12; E. coli K12): >200 µg/mL |
| CN[C@@H]1[C@H](O)[C@H](NC)C2O[C@]3(O)C(OC2[C@H]1O)O[C@H](C)C[C@H]3NC(=O)Cc1csc(N)n1 (stereo partly drawn) [Compound 1444, 3′-Dihydro-3′-deoxy-4(R)-(2-aminothiazol-4-yl)acetylamino spectinomycin trihydrobromide] | 25 | 50 | 3.1 | > 200 | > 200 | > 200 | 100 | > 200 | > 200 | 100 | 25 | 200 | > 200 | 6.25 | 0.12 | – | 100 | – |
| CN[C@@H]1[C@H](O)[C@H](NC)C2O[C@]3(O)C(OC2[C@H]1O)O[C@H](C)C[C@H]3NCc1ccc(C)cc1 (stereo partly drawn) [Compound 1425, 3′-Dihydro-3′-deoxy-4(R)-(4-methyl)benzylamino spectinomycin Trihydrochloride] | 12.5 | 100 | 1000 | > 200 | 200 | > 200 | 50 | > 200 | > 200 | > 200 | 100 | 100 | > 200 | 100 | – | inhibited well | 200 | – |
